Laboratory results as given in US20080194548A1, “Drug Combination Therapy and Pharmaceutical Compositions for Treating Inflammatory Disorders” (priority 2005, published 2008).

Legend:
Female C57BL/6 mice = assay: MOGp35-55-induced disease activity model in mice (oral gavage, daily disease activity score); assay type: in vivo; settings: single agent; for maximal extent and duration of disease activity: compared with control animals; for onset of disease symptoms: low and high doses, compared to animals that receive vehicle
cytokine TNFα = settings: microglia and astrocytes; cited from earlier work
[1] = test system: monocyte chemoattractant protein 1 (MCP1); settings: human peripheral blood mononuclear cells or cultured endothelial cells; cited from earlier work
[2] = test system: inducible nitric oxide synthetase (i-NOS); settings: microglia and astrocytes; cited from earlier work

Compound	maximal extent and duration of disease activity (Female C57BL/6 mice)	onset of disease symptoms (Female C57BL/6 mice)	inhibition of the cytokine TNFα (cytokine TNFα)	inhibition of MCP1 production [1]	inhibition of inducible nitric oxide synthetase (i-NOS) [2]
CC(C)[C@]1(C(=O)N2COc3ccc(C(F)(F)F)cc3C2)CC[C@@H](N2CC[C@@H](c3cccc(C(=O)O)c3)[C@H](C)C2)C1 (single isomer, unassigned) [Compound 4, 3-[(3S,4R or 3R,4S)-1-((1R,3S)-3-Isopropyl-3-{[6-(trifluoromethyl)-2H-1,3-benzoxazin-3(4H)-yl]carbonyl}cyclopentyl)-3-methylpiperidin-4-yl]benzoic acid]	reduced compared with control animals	delayed in a dose-dependent manner	–	–	–
CO[C@@H]1COCC[C@@H]1N[C@@H]1CC[C@@](C(=O)N2CCc3ncc(C(F)(F)F)cc3C2)(C(C)C)C1 [Compound 1, N-((1R,3S)-3-isopropyl-3-{[3-(trifluoromethyl)-7,8-dihydro-1,6-naphthyridin-6(5H)-yl]carbonyl}cyclopentyl)-N-[(3S,4S)-3-methoxytetrahydro-2H-pyran-4-yl]amine]	reduced compared with control animals	delayed in a dose-dependent manner	–	–	–
CC[C@H](C)C(=O)O[C@H]1C[C@@H](C)C=C2C=C[C@H](C)[C@H](CC[C@@H]3C[C@@H](O)CC(=O)O3)[C@H]21 [Lovastatin, lovastatin]	–	–	inhibit	inhibit	inhibit
CC(C)c1c(C(=O)Nc2ccccc2)c(-c2ccccc2)c(-c2ccc(F)cc2)n1CC[C@@H](O)C[C@@H](O)CC(=O)O [atorvastatin]	reduced compared with control animals	delayed in a dose-dependent manner	–	–	–
